The structures appear in SMILES notation. Values joined by “and” are separate entries in the source; they are usually repeats but may differ in a detail not shown here. Equal entries are not always repeated. Inconclusive results and toxic doses are left out.

The experiment deals with P388 leukemia ip, CD2F1 mice, survival T/C. The experiment is described as follows: NCI In Vivo Anticancer Drug Screen. Data for tumor model P388 Leukemia (intraperitoneal) in CD2F1 (CDF1) mice. To be noted: endpoint: median survival time, higher = longer survival. The method in brief:
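Mice carrying the transplanted tumor received test compound or vehicle. Survival was recorded in each group, and the value is the treated-group measurement divided by that of the vehicle-treated control group.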

Where [1] appears, read: dose: 25.0 mg/kg/injection, schedule: Q01DX009 (ip), vehicle: Klucel (hydroxypropylcellulose) (HPC).
The mark [2] stands for this setting: dose: 50.0 mg/kg/injection, schedule: Q01DX009 (ip), vehicle: Klucel (hydroxypropylcellulose) (HPC).
The mark [3] stands for this setting: dose: 100.0 mg/kg/injection, schedule: Q01DX009 (ip), vehicle: Klucel (hydroxypropylcellulose) (HPC).
The mark [4] stands for this setting: dose: 200.0 mg/kg/injection, schedule: Q01DX009 (ip), vehicle: Klucel (hydroxypropylcellulose) (HPC).
[5] abbreviates: dose: 400.0 mg/kg/injection, schedule: Q01DX009 (ip), vehicle: Klucel (hydroxypropylcellulose) (HPC).
The mark [6] stands for this setting: dose: 60.0 mg/kg/injection, schedule: Q01DX005 (ip), vehicle: saline with Tween-80.
Where [7] appears, read: dose: 120.0 mg/kg/injection, schedule: Q01DX005 (ip), vehicle: saline with Tween-80.
The mark [8] stands for this setting: dose: 1.56 mg/kg/injection, schedule: Q01DX005 (ip), vehicle: saline with Tween-80.
Where [9] appears, read: dose: 3.13 mg/kg/injection, schedule: Q01DX005 (ip), vehicle: saline with Tween-80.
Where [10] appears, read: dose: 6.25 mg/kg/injection, schedule: Q01DX005 (ip), vehicle: saline with Tween-80.
Where [11] appears, read: dose: 50.0 mg/kg/injection, schedule: Q01DX005 (ip), vehicle: saline with Tween-80.
The mark [12] stands for this setting: dose: 100.0 mg/kg/injection, schedule: Q01DX005 (ip), vehicle: saline with Tween-80.
Setting [13] is: dose: 200.0 mg/kg/injection, schedule: Q01DX005 (ip), vehicle: saline with Tween-80.
[14] abbreviates: dose: 50.0 mg/kg/injection, schedule: Q01DX009 (ip), vehicle: saline with Tween-80.
Where [15] appears, read: dose: 100.0 mg/kg/injection, schedule: Q01DX009 (ip), vehicle: saline with Tween-80.
[16] abbreviates: dose: 200.0 mg/kg/injection, schedule: Q01DX009 (ip), vehicle: saline with Tween-80.
[17] abbreviates: dose: 25.0 mg/kg/injection, schedule: Q01DX009 (ip), vehicle: saline with Tween-80.

For the compound `NC(CSC(c1ccccc1)(c1ccccc1)c1ccc(CBr)cc1)C(=O)O` (stereo unspecified), the T/C runs as follows: (dose: 12.5 mg/kg/injection, schedule: Q01DX009 (ip), vehicle: Klucel (hydroxypropylcellulose) (HPC)) 86 % of control; (dose: 12.5 mg/kg/injection, schedule: Q01DX009 (ip), vehicle: other) 120 % of control; under setting [1], 90 % of control; under setting [2], 95 % of control; under setting [3], 88 % of control; (dose: 100.0 mg/kg/injection, schedule: Q01DX009 (ip), vehicle: other) 151 % of control and 159 % of control. In addition, the T/C by setting is: under setting [4], 90 % of control; (dose: 200.0 mg/kg/injection, schedule: Q01DX009 (ip), vehicle: other) 162 % of control and 178 % of control; under setting [5], 94 % of control; (dose: 400.0 mg/kg/injection, schedule: Q01DX009 (ip), vehicle: other) 182 % of control.
For the compound `Nc1nnc(Cc2ccc(Br)cc2)o1`, the T/C reads like this: under setting [6], 98 % of control; under setting [7], 97 % of control; (dose: 240.0 mg/kg/injection, schedule: Q01DX005 (ip), vehicle: saline with Tween-80) 100 % of control.
For the compound `CCOc1c(N=Nc2cccc(Cl)c2)c(-c2ccccc2)nn1C(=S)S`, the T/C is 100 % of control (dose: 0.78 mg/kg/injection, schedule: Q01DX005 (ip), vehicle: saline with Tween-80); 99 % of control under setting [8]; 100 % of control under setting [9]; 99 % of control and 100 % of control under setting [10].
As to `COc1cc(CC2NCCc3cc(O)c(O)cc32)cc(OC)c1OC` (stereo unspecified), the T/C by setting is: under setting [1], 103 % of control; under setting [2], 100 % of control and 113 % of control; under setting [3], 106 % of control and 111 % of control; under setting [4], 108 % of control.
As to `O=C1C(=O)N(c2ccccc2)N=C1N=Nc1ccccc1`, the T/C was 110 % of control and 115 % of control under setting [11]; 108 % of control and 114 % of control under setting [12]; 117 % of control and 120 % of control under setting [13]; 109 % of control (dose: 400.0 mg/kg/injection, schedule: Q01DX005 (ip), vehicle: saline with Tween-80).
For the compound `Cc1cc(C)c(OC(=O)N(CCCl)N=O)c(C)c1`, the T/C reads like this: (dose: 3.12 mg/kg/injection, schedule: Q01DX001 (ip), vehicle: saline with Tween-80) 111 % of control; (dose: 6.25 mg/kg/injection, schedule: Q01DX001 (ip), vehicle: saline with Tween-80) 116 % of control.
`O=Cc1ccc(NCCCN2CCN(CCCNc3ccc(C=O)c4sc5ccccc5c(=O)c34)CC2)c2c(=O)c3ccccc3sc12`: the T/C under setting [8] is 107 % of control; the T/C under setting [9] was 101 % of control; the T/C under setting [10] was 95 % of control; the T/C (dose: 12.5 mg/kg/injection, schedule: Q01DX005 (ip), vehicle: saline with Tween-80) was 99 % of control; the T/C under setting [11] was 88 % of control.
With `N#[N+]c1c(C(=O)O)[nH]c(=O)[nH]c1=O`, the T/C is 109 % of control (dose: 16.0 mg/kg/injection, schedule: Q01DX009 (ip), vehicle: saline sonified); 104 % of control (dose: 32.0 mg/kg/injection, schedule: Q01DX009 (ip), vehicle: saline sonified); 100 % of control (dose: 64.0 mg/kg/injection, schedule: Q01DX009 (ip), vehicle: saline sonified); 104 % of control (dose: 125.0 mg/kg/injection, schedule: Q01DX009 (ip), vehicle: saline sonified); 109 % of control (dose: 250.0 mg/kg/injection, schedule: Q01DX009 (ip), vehicle: saline sonified); 104 % of control (dose: 500.0 mg/kg/injection, schedule: Q01DX009 (ip), vehicle: saline sonified).
Take `O=C1NC(=O)C2CCCc3cccc1c32` (stereo unspecified): the T/C was 100 % of control under setting [14], 97 % of control under setting [15] and 110 % of control under setting [16].
Consider `Clc1ccc2c(c1)[N+](=c1ccc3nc4cc(Cl)ccc4sc-3c1)c1ccccc1S2.[Cl][Cu][Cl]`, for which the T/C (dose: 60.0 mg/kg/injection, schedule: Q01DX005 (ip), vehicle: Klucel (hydroxypropylcellulose) (HPC)) is 95 % of control; the T/C (dose: 120.0 mg/kg/injection, schedule: Q01DX005 (ip), vehicle: Klucel (hydroxypropylcellulose) (HPC)) is 91 % of control; the T/C (dose: 240.0 mg/kg/injection, schedule: Q01DX005 (ip), vehicle: Klucel (hydroxypropylcellulose) (HPC)) was 88 % of control.
Take `O=C(c1ccc(CSc2ccc(Cl)cc2)o1)N1CCOCC1`: the T/C by setting is: under setting [11], 99 % of control; under setting [12], 101 % of control; under setting [13], 91 % of control.
For `N#CCCSc1nnc(SCCC#N)s1`, the T/C is 92 % of control under setting [2], 101 % of control under setting [3], 94 % of control under setting [4] and 90 % of control under setting [5].
In the case of `CN1CCN(C)C(=O)C1=O`, the T/C runs as follows: (dose: 12.5 mg/kg/injection, schedule: Q04DX003 (ip), vehicle: suspension in saline) 108 % of control; (dose: 25.0 mg/kg/injection, schedule: Q04DX003 (ip), vehicle: suspension in saline) 115 % of control; (dose: 50.0 mg/kg/injection, schedule: Q04DX003 (ip), vehicle: suspension in saline) 110 % of control.
On to `O=C(Nc1ccc(C2=NCCN2)cc1)c1ccc(C(=O)Nc2ccc(C3=NCCN3)cc2)c(F)c1`, for which the T/C (dose: 12.5 mg/kg/injection, schedule: Q04DX003 (ip), vehicle: saline with Tween-80) is 109 % of control; the T/C (dose: 25.0 mg/kg/injection, schedule: Q04DX003 (ip), vehicle: saline with Tween-80) is 122 % of control; the T/C under setting [15] is 181 % of control; the T/C under setting [16] is 250 % of control; the T/C (dose: 264.0 mg/kg/injection, schedule: Q04DX003 (ip), vehicle: saline with Tween-80) is 200 % of control; the T/C (dose: 400.0 mg/kg/injection, schedule: Q01DX009 (ip), vehicle: saline with Tween-80) was 272 % of control. Moreover, the T/C was 245 % of control (dose: 400.0 mg/kg/injection, schedule: Q04DX003 (ip), vehicle: saline with Tween-80) and 259 % of control (dose: 600.0 mg/kg/injection, schedule: Q04DX003 (ip), vehicle: saline with Tween-80).
With `CCCNCCC(O)c1cc(C(F)(F)F)nc2c(C(F)(F)F)cccc12` (stereo unspecified), the T/C under setting [17] is 102 % of control, the T/C under setting [14] is 110 % of control and the T/C under setting [15] was 109 % of control.
For `C=CC12CCC(CC1)n1c(=O)n(C)c(=O)n12`, the T/C is 99 % of control under setting [11], 103 % of control under setting [12] and 100 % of control under setting [13].
Regarding `CCCCCCC(=O)/C=C/c1cccc(OCc2ccccc2)c1`, the T/C by setting is: (dose: 50.0 mg/kg/injection, schedule: Q01DX005 (ip), vehicle: Klucel (hydroxypropylcellulose) (HPC)) 90 % of control; (dose: 100.0 mg/kg/injection, schedule: Q01DX005 (ip), vehicle: Klucel (hydroxypropylcellulose) (HPC)) 87 % of control; (dose: 200.0 mg/kg/injection, schedule: Q01DX005 (ip), vehicle: Klucel (hydroxypropylcellulose) (HPC)) 94 % of control.
For `O=P(Oc1ccccc1)(Oc1ccccc1)C(Nc1ccc(C(F)(F)F)cc1)c1ccccc1` (stereo unspecified), the T/C under setting [2] is 99 % of control, the T/C under setting [3] is 93 % of control and the T/C under setting [4] was 86 % of control.
Consider `Cc1nnc(NC(=O)CCl)s1`, for which the T/C under setting [17] was 95 % of control, the T/C under setting [14] is 100 % of control and the T/C under setting [15] is 104 % of control.
As to `Cc1cccc(Nc2n[nH]c(N)n2)c1`, the T/C under setting [2] is 91 % of control and the T/C under setting [3] was 94 % of control.
Consider `[O-]c1n[n+](Cc2ccc(Cl)cc2)no1`, for which the T/C was 102 % of control (dose: 100.0 mg/kg/injection, schedule: Q04DX003 (ip), vehicle: Klucel (hydroxypropylcellulose) (HPC)) and 119 % of control (dose: 200.0 mg/kg/injection, schedule: Q04DX003 (ip), vehicle: Klucel (hydroxypropylcellulose) (HPC)).
For the compound `Cn1ncc2c(N)cc(=O)[nH]c21`, the T/C reads like this: (dose: 100.0 mg/kg/injection, schedule: Q01DX001 (ip), vehicle: saline with Tween-80) 101 % of control; (dose: 200.0 mg/kg/injection, schedule: Q01DX001 (ip), vehicle: saline with Tween-80) 94 % of control; (dose: 400.0 mg/kg/injection, schedule: Q01DX001 (ip), vehicle: saline with Tween-80) 104 % of control.
In the case of `COc1ccc(-c2c(-c3ccccc3)c(=O)oc3cc(OC)ccc23)cc1`, the T/C runs as follows: under setting [6], 91 % of control; under setting [7], 87 % of control and 88 % of control.

Values taken from PubChem BioAssay AID330 (DTP/NCI, 2004).
